The structures appear in SMILES notation.

For this assay, the target named is HiBit-KRAS^G12C (Homo sapiens, UniProt P01116, G12C). In words: HiBit degradation assay in SW1573 HiBit-KRas^G12C cells. Conditions: 0.1% DMSO, 24 hours; for DC50: SW1573 HiBit-KRas^G12C, read-out: KRas^G12C-HIBit (SW1573; 0.1% DMSO) DC50*. More on the design: expressed in transfected cells; host or cells: SW1573 (clone E6), modified pcDNA3.1 vector, TK promoter. The assay is classed as cell-based. On the procedure: Reagents. SW1573 (CRL-2170) and MiaPaCa-2 (CRL-1420) cells were purchased from ATCC. Both cell lines are […] for the G12C mutation in KRAS. SW1573 cells were cultured in DMEM+F12+Glutamax (+Sodium Bicarbonate, +sodium pyruvate, Thermofisher scientific, #10565) supplemented with 10% FBS (Thermofisher scientific, #2060357) and 1% Antibiotic-Antimycotic (Thermofisher scientific, #15240096). MiaPaCa-2 cells were cultured in DMEM+Glutamax media (Thermofisher scientific, #10566) supplemented with 10% FBS (Thermofisher scientific, #2060357) and 1% Antibiotic-Antimycotic (Thermofisher scientific, #15240096). For degradation assays, 384 well plates were purchased from Corning (Corning® CellBIND® 384-well Flat Clear Bottom Black Polystyrene Microplates, Low Flange, #3770). Gambogic acid was purchased from Selleckchem (#S2448). Alamar blue was purchased from Thermofisher scientific (A50101) and used according to manufacturer instructions. The Nano-Glo® HiBit Lytic Detection System and Nano-Glo® HiBit Blotting System were purchased from Promega (#N3050 and #N2410) and used according to manufacturer instructions.
To create the SW1573 HiBit-KRAS^G12C cell line, the nucleotide sequence encoding the 11 amino acid HiBit tag from Promega (Schwinn, M. K. et al. (2018) CRISPR-mediated tagging of endogenous proteins with a luminescent peptide. ACS Chem. Biol. 13(2), 467-474) was appended to the N-terminus of the KRAS^G12C coding sequence. This synthesized DNA was cloned into a modified pcDNA3.1 vector under the control of the thymidine kinase (TK) promoter. This HiBit-KRAS^G12C expressing plasmid was transfected into parental SW1573 cells and colonies were selected using 400 μg/mL zeocin. The resulting clonal lines were screened for expression of HiBit-KRAS^G12C protein using Nano-Glo® HiBit Blotting System. A luminescent band of the correct size for HiBit-KRAS^G12C was detected in several clones. Clone E6 was selected for further studies.
Either SW1573 HiBit-KRas^G12C or MiaPaCa-2 HiBit-KRas^G12C cells were plated at 9000 cells/well in a 384 well plate (Corning #3770). Exemplary heterobifunctional molecules and positive controls were diluted in the appropriate cell media and applied to the plated cells resulting in a final concentration titration of 10 μM to 20 nM in either 0.1% or 0.5% dimethyl sulfoxide (DMSO). Gambogic acid was used as a positive control for cytotoxicity and titrated from 10 μM to 78 nM. All assays were performed in triplicate. Cells were treated with compounds for 24 hours at 37° C. in an incubator containing 5% CO2. Following treatment, alamar blue was used to determine if any compounds led to a loss in cell viability after 24 hours. The 10× alamar blue reagent was added to a final concentration of 1× as recommended by the manufacturer and cells were returned to the incubator for 4 hours. Plates were then allowed to equilibrate to room temperature and fluorescence was measured using a Perkin-Elmer EnVision. After completion of the fluorescence read, the liquid from each well was removed and the cells were washed with PBS. The Nano-Glo® HiBiT detection reagent was prepared according to the manufacturer's instructions and added to each well after the PBS wash was removed. Following incubation at room temperature for 45 minutes, the luminescence was read using the ultra-sensitive luminescence aperture on the Envision instrument.
Fluorescence values from the alamar blue treatment were normalized to the DMSO only control for each compound titration. We hypothesized that compounds that led to a ≥50% loss in cell viability of the KRAS-independent SW1573 HiBit-KRas^G12C cells were likely generally cytotoxic and loss of HiBit-KRAS^G12C signal from these compounds may be due to lower cell number and not specific KRAS^G12C degradation. These points were therefore excluded from the data analysis for degradation. […]
Background: The HiBiT peptide binds its large partner to form an active luciferase.

Chain of HiBit-KRAS^G12C (P01116 1-186 isoform P01116-2 G12C limits assumed): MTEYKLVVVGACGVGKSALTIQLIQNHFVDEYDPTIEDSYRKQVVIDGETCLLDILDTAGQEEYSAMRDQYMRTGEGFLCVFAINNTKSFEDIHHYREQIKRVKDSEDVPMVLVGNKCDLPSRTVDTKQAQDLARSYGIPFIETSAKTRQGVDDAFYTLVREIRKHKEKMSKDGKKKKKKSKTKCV

For `C=CC(=O)N1CCN(c2nc(O[C@H](C)CN3CCC(COc4cc([C@H](C(=O)N5C[C@H](O)C[C@H]5C(=O)N[C@@H](C)c5ccc(-c6scnc6C)cc5)C(C)C)on4)CC3)nc3c(F)c(-c4cc(O)cc5ccccc45)c(Cl)cc23)CC1` [Compound 19, (2S,4R)-1-[(2R)-2-[3-({1-[(2R)-2-{[6-chloro-8-fluoro-7-(3-hydroxynaphthalen-1-yl)-4-[4-(prop-2-enoyl)piperazin-1-yl]quinazolin-2-yl]oxy}propyl]piperidin-4-yl}methoxy)-1,2-oxazol-5-yl]-3-methylbutanoyl]-4-hydroxy-N-[(1S)-1-[4-(4-methyl-1,3-thiazol-5-yl)phenyl]ethyl]pyrrolidine-2-carboxamide], the DC50 is > 1000 nM.

Consider `C=C(F)C(=O)N1CCN(c2nc(O[C@H](C)CN3CCC(COCC(=O)N[C@H](C(=O)N4C[C@H](O)C[C@H]4C(=O)N[C@@H](C)c4ccc(-c5scnc5C)cc4)C(C)(C)C)CC3)nc3c(F)c(-c4cc(O)cc5ccccc45)c(Cl)cc23)CC1` [Compound 27, (2S,4R)-1-[(2S)-2-[2-({1-[(2R)-2-({6-chloro-8-fluoro-4-[4-(2-fluoroprop-2-enoyl)piperazin-1-yl]-7-(3-hydroxynaphthalen-1-yl)quinazolin-2-yl}oxy)propyl]piperidin-4-yl}methoxy)acetamido]-3,3-dimethylbutanoyl]-4-hydroxy-N-[(1S)-1-[4-(4-methyl-1,3-thiazol-5-yl)phenyl]ethyl]pyrrolidine-2-carboxamide], for which the DC50 was > 1000 nM. Besides, the Dmax (SW1573, SW1573 HiBit-KRas^G12C, read-out: KRas^G12C-HiBit (SW1573; 0.1% DMSO) Dmax**) was < 35%.

With `C=CC(=O)N1CCN(c2nc(O[C@H](C)CN3CCC(CC(=O)N[C@H](C(=O)N4C[C@H](O)C[C@H]4C(=O)N[C@@H](C)c4ccc(-c5scnc5C)cc4)C(C)(C)C)CC3)nc3c(F)c(-c4cc(O)cc5ccccc45)c(Cl)cc23)CC1` [Compound 38, (2S,4R)-1-[(2S)-2-(2-{1-[(2R)-2-{[6-chloro-8-fluoro-7-(3-hydroxynaphthalen-1-yl)-4-[4-(prop-2-enoyl)piperazin-1-yl]quinazolin-2-yl]oxy}propyl]piperidin-4-yl}acetamido)-3,3-dimethylbutanoyl]-4-hydroxy-N-[(1S)-1-[4-(4-methyl-1,3-thiazol-5-yl)phenyl]ethyl]pyrrolidine-2-carboxamide], the DC50 was > 1000 nM.

Turning to `C=CC(=O)N1CCN(c2nc(O[C@H](C)CN3CCC(OCCOc4cc(-c5scnc5C)ccc4CNC(=O)[C@@H]4C[C@@H](O)CN4C(=O)[C@@H](c4cc(C)no4)C(C)C)CC3)nc3c(F)c(-c4cc(O)cc5ccccc45)c(Cl)cc23)CC1` [Compound 78, (2S,4R)-N-({2-[2-({1-[(2R)-2-{[6-chloro-8-fluoro-7-(3-hydroxynaphthalen-1-yl)-4-[4-(prop-2-enoyl)piperazin-1-yl]quinazolin-2-yl]oxy}propyl]piperidin-4-yl}oxy)ethoxy]-4-(4-methyl-1,3-thiazol-5-yl)phenyl}methyl)-4-hydroxy-1-[(2R)-3-methyl-2-(3-methyl-1,2-oxazol-5-yl)butanoyl]pyrrolidine-2-carboxamide], the DC50 was > 1000 nM.

Turning to `C=CC(=O)N1CCN(c2nc(O[C@H](C)CN3CCC(OCCOCCOCCOCCOCCOCCOCCOCCOCC(=O)N[C@H](C(=O)N4C[C@H](O)C[C@H]4C(=O)N[C@@H](C)c4ccc(-c5scnc5C)cc4)C(C)(C)C)CC3)nc3c(F)c(-c4cc(O)cc5ccccc45)c(Cl)cc23)CC1` [Compound 84, (2S,4R)-1-[(2S)-2-[26-({1-[(2R)-2-{[6-chloro-8-fluoro-7-(3-hydroxynaphthalen-1-yl)-4-[4-(prop-2-enoyl)piperazin-1-yl]quinazolin-2-yl]oxy}propyl]piperidin-4-yl}oxy)-3,6,9,12,15,18,21,24-octaoxahexacosanamido]-3,3-dimethylbutanoyl]-4-hydroxy-N-[(1S)-1-[4-(4-methyl-1,3-thiazol-5-yl)phenyl]ethyl]pyrrolidine-2-carboxamide], the DC50 is > 1000 nM.
